Measured values from patent US4335249A, “Herbicidal diphenyl ethers, sulfides, sulfoxides and sulfones” (Rohm and Haas Company, priority 1976, dated 1982).

Legend:
Format in all cases: in vivo
[1] = test system: cocklebur (Xanthium pensylvanicum); assay: Preemergence herbicidal activity, cocklebur; conditions: 2 lb/A; for pest or weed control at 2241.7 g/ha: Xanthium strumarium, pre-emergence, 336 h
Procedure, shortened: (§1)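 For postemergence testing, seedlings grow two weeks in soil flats before spraying; for preemergence testing, flats are sprayed just after sowing. Application uses acetone stock diluted in water, 50 gal/acre carrier volume, stated lb/A rate. Control recorded as mean percent killed roughly two weeks later.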

[2] = test system: marigold (Tagetes spp.); assay: Preemergence herbicidal activity, marigold; conditions: 2 lb/A; for pest or weed control at 2241.7 g/ha: pre-emergence, 336 h
Procedure, shortened: as §1

[3] = test system: morningglory (Ipomoca spp.); assay: Preemergence herbicidal activity, morningglory; conditions: 2 lb/A; for pest or weed control at 2241.7 g/ha: Ipomoea, pre-emergence, 336 h
Procedure, shortened: as §1

[4] = test system: tomato (Lycopersicon esculentum); assay: Preemergence herbicidal activity, tomato; conditions: Pre, 2 lb/A; for pest or weed control at 2241.7 g/ha: Solanum lycopersicum, pre-emergence, 336 h
Procedure, shortened: as §1

[5] = test system: velvetleaf (Abutilon theophrasti); assay: Preemergence herbicidal activity, velvetleaf; conditions: Pre, 2 lb/A; for pest or weed control at 2241.7 g/ha: Abutilon theophrasti, pre-emergence, 336 h
Procedure, shortened: as §1

[6] = test system: barnyardgrass (Echinochloa crusgalli); assay: Preemergence herbicidal activity, barnyardgrass; conditions: Pre, 2 lb/A; for pest or weed control at 2241.7 g/ha: Echinochloa crus-galli, pre-emergence, 336 h
Procedure, shortened: (§2)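 Flats of soil-planted weed seeds were treated either right after sowing (preemergence) or two weeks after germination (postemergence). Application was a spray of acetone solution diluted in water, 50 gallons per acre carrier, dosed in lb/A.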

[7] = test system: downybrome (Bromus tectorum); assay: Preemergence herbicidal activity, downybrome; conditions: Pre, 2 lb/A; for pest or weed control at 2241.7 g/ha: Bromus tectorum, pre-emergence, 336 h
Procedure, shortened: as §1

[8] = test system: foxtail (Setaria spp.); assay: Preemergence herbicidal activity, foxtail; conditions: Pre, 2 lb/A; for pest or weed control at 2241.7 g/ha: Setaria, pre-emergence, 336 h
Procedure, shortened: as §1

[9] = test system: yellow nutsedge (Cyperus esculentus); assay: Preemergence herbicidal activity, yellow nutsedge; conditions: 2 lb/A; for pest or weed control at 2241.7 g/ha: Cyperus, pre-emergence, 336 h
Procedure, shortened: as §1

[10] = test system: wild oats (Avena fatua); assay: Preemergence herbicidal activity, wild oats; conditions: Pre, 2 lb/A; for pest or weed control at 2241.7 g/ha: Avena fatua, pre-emergence, 336 h, read-out: % control, Wild oat
Procedure, shortened: as §1

[11] = test system: cocklebur (Xanthium pensylvanicum); assay: Postemergence herbicidal activity, cocklebur; conditions: 2 lb/A; for pest or weed control at 2241.7 g/ha: Xanthium strumarium, post-emergence, 336 h
Procedure, shortened: as §1

[12] = test system: marigold (Tagetes spp.); assay: Postemergence herbicidal activity, marigold; conditions: 2 lb/A; for pest or weed control at 2241.7 g/ha: post-emergence, 336 h
Procedure, shortened: as §1

[13] = test system: morningglory (Ipomoca spp.); assay: Postemergence herbicidal activity, morningglory; conditions: 2 lb/A; for pest or weed control at 2241.7 g/ha: Ipomoea, post-emergence, 336 h
Procedure, shortened: as §1

[14] = test system: tomato (Lycopersicon esculentum); assay: Postemergence herbicidal activity, tomato; conditions: Post, 2 lb/A; for pest or weed control at 2241.7 g/ha: Solanum lycopersicum, post-emergence, 336 h
Procedure, shortened: as §1

[15] = test system: velvetleaf (Abutilon theophrasti); assay: Postemergence herbicidal activity, velvetleaf; conditions: 2 lb/A; for pest or weed control at 2241.7 g/ha: Abutilon theophrasti, post-emergence, 336 h
Procedure, shortened: as §2

[16] = test system: barnyardgrass (Echinochloa crusgalli); assay: Postemergence herbicidal activity, barnyardgrass; conditions: Post, 2 lb/A; for pest or weed control at 2241.7 g/ha: Echinochloa crus-galli, post-emergence, 336 h
Procedure, shortened: as §2

[17] = test system: downybrome (Bromus tectorum); assay: Postemergence herbicidal activity, downybrome; conditions: Post, 2 lb/A; for pest or weed control at 2241.7 g/ha: Bromus tectorum, post-emergence, 336 h
Procedure, shortened: as §1

[18] = test system: foxtail (Setaria spp.); assay: Postemergence herbicidal activity, foxtail; conditions: Post, 2 lb/A; for pest or weed control at 2241.7 g/ha: Setaria, post-emergence, 336 h
Procedure, shortened: as §1

[19] = test system: yellow nutsedge (Cyperus esculentus); assay: Postemergence herbicidal activity, yellow nutsedge; conditions: 2 lb/A; for pest or weed control at 2241.7 g/ha: Cyperus, post-emergence, 336 h
Procedure, shortened: as §1

[20] = test system: wild oats (Avena fatua); assay: Postemergence herbicidal activity, wild oats; conditions: Post, 2 lb/A; for pest or weed control at 2241.7 g/ha: Avena fatua, post-emergence, 336 h, read-out: % control, Wild oat
Procedure, shortened: as §1

SMILES | pest or weed control at 2241.7 g/ha [1] [%] | pest or weed control at 2241.7 g/ha [2] [%] | pest or weed control at 2241.7 g/ha [3] [%] | pest or weed control at 2241.7 g/ha [4] [%] | pest or weed control at 2241.7 g/ha [5] [%] | pest or weed control at 2241.7 g/ha [6] [%] | pest or weed control at 2241.7 g/ha [7] [%] | pest or weed control at 2241.7 g/ha [8] [%] | pest or weed control at 2241.7 g/ha [9] [%] | pest or weed control at 2241.7 g/ha [10] [%] | pest or weed control at 2241.7 g/ha [11] [%] | pest or weed control at 2241.7 g/ha [12] [%] | pest or weed control at 2241.7 g/ha [13] [%] | pest or weed control at 2241.7 g/ha [14] [%] | pest or weed control at 2241.7 g/ha [15] [%] | pest or weed control at 2241.7 g/ha [16] [%] | pest or weed control at 2241.7 g/ha [17] [%] | pest or weed control at 2241.7 g/ha [18] [%] | pest or weed control at 2241.7 g/ha [19] [%] | pest or weed control at 2241.7 g/ha [20] [%] | other results
CCOC(=O)C(Oc1ccc(Oc2ccc(C(F)(F)F)cc2Cl)cc1)C(C)C (stereo not drawn) [Example 28] | 0 | 0 | 70 | 0 | 0 | 95 | 30 | 90 | 0 | 0 | 0 | 0 | 0 | 0 | 0 | 60 | 20 | 99 | 0 | 60 | 
CCCCCCCCOC(=O)C(C)Oc1ccc(Oc2ccc(C(F)(F)F)cc2Cl)cc1 (stereo not drawn) [Example 26] | 0 | 0 | 0 | 0 | 0 | 50 | 0 | 0 | 0 | 50 | 60 | 70 | 70 | 30 | 50 | 100 | 50 | 100 | 20 | 20 | 
CC(Oc1ccc(Oc2ccc(C(F)(F)F)cc2Cl)cc1)C(N)=O (stereo not drawn) [Example 18] | 0 | 0 | 0 | 0 | 0 | 100 | 95 | 100 | 0 | 0 | 0 | 0 | 0 | 0 | 0 | 99 | 40 | 99 | 0 | 95 | 
CCOC(=O)COc1ccc(Oc2ccc(C(F)(F)F)cc2Cl)cc1 [Example 11] | 0 | 0 | 0 | 0 | 0 | 0 | 0 | 30 | 0 | 0 | 50 | 0 | 30 | 0 | 20 | 20 | 0 | 30 | 0 | 40 | 
CC(Oc1ccc(Oc2ccc(C(F)(F)F)cc2)cc1)C(=O)O (stereo not drawn) [Example 29] | 0 | 0 | 0 | 0 | 0 | 100 | 99 | 100 | 0 | 95 | 0 | 30 | 0 | 30 | 0 | 100 | 80 | 100 | 0 | 100 | 
CCOC(=O)C(C)Oc1ccc(Sc2ccc(C(F)(F)F)cc2Cl)cc1 (stereo not drawn) [Example 3, Ethyl 2-[4-(2-Chloro-4-trifluoromethylphenylthio)phenoxy] propionate] | 0 | 0 | 0 | 0 | 0 | 95 | 40 | 100 | 0 | 30 | 20 | 50 | 50 | 70 | 70 | 70 | 90 | 100 | 66 | 99 | 
CC(Oc1ccc(Oc2ccc(C(F)(F)F)cc2Cl)cc1)C(=O)O (stereo not drawn) [Example 12] |  |  |  |  |  |  |  |  |  |  |  |  |  |  |  |  |  |  |  |  | % control, Cocklebur ([1]; Pre): 0%; % control, Marigold ([2]; Pre): 0%; % control, Morningglory ([3]; Pre): 0%; % control, Tomato [4]: 0%; % control, Velvetleaf [5]: 0%; % control, Barnyardgrass [6]: 100%; % control, Downybrome [7]: 0%; % control, Foxtail [8]: 100%; % control, Nutsedge ([9]; Pre): 0%; % control, Wild oat [10]: 60%; % control, Cocklebur ([11]; Post): 0%; % control, Marigold ([12]; Post): 0%; % control, Morningglory ([13]; Post): 0%; % control, Tomato [14]: 0%; % control, Velvetleaf ([15]; Post): 0%; % control, Barnyardgrass [16]: 100%; % control, Downybrome [17]: 60%; % control, Foxtail [18]: 100%; % control, Nutsedge ([19]; Post): 0%; % control, Wild oat [20]: 70%
CCOC(=O)C(C)Oc1ccc(Sc2ccc(C(F)(F)F)cc2C#N)cc1 (stereo not drawn) [Example 47] | 0 | 0 | 0 | 0 | 0 | 100 | 40 | 95 | 0 | 100 | 0 | 0 | 0 | 0 | 0 | 100 | 99 | 99 | 0 | 99 | 
CC(Oc1ccc(Oc2ccc(C(F)(F)F)cc2Cl)cc1)C(=O)OC(C)(C)C (stereo not drawn) [Example 35] | 0 | 0 | 0 | 0 | 0 | 99 | 0 | 100 | 0 | 0 | 0 | 0 | 0 | 0 | 0 | 60 | 0 | 100 | 0 | 0 | 
